Laboratory results published in article PMC12176620, “Structure of the ATP-driven methyl-coenzyme M reductase activation complex” (Nature, 2025).

Experiments:
[1] = biological target: T1, MCR (McrABG core) in the MCR activation complex (Methanococcus maripaludis, UniProt A0A2L1CBB0+A0A2L1CBB3+A0A2L1CBG2); test: cryo-EM structure; format: binding
T1 construct: gene mcrA; native complex pulled down from M. maripaludis by genomic N-terminal Twin-Strep-tag on McrC; McrA with native post-translational modifications; with Methyl-coenzyme M reductase operon protein C; Methanogenesis marker protein 7; Methanogenesis marker protein 17; Methanogenesis marker protein 3; Methyl-coenzyme M reductase system component A2; DUF2098 domain-containing protein

[2] = biological target: T2, A2 component (Methanococcus maripaludis, UniProt A0A2L1C9A1); test: cryo-EM structure; format: binding; settings: two ATP with Mg ions, pre-hydrolytic state; sample incubated with 5 mM ATP
T2 construct: gene opuCA; with Methyl-coenzyme M reductase subunit alpha; Methyl-coenzyme M reductase subunit beta; Methyl-coenzyme M reductase subunit gamma; Methyl-coenzyme M reductase operon protein C; Methanogenesis marker protein 7; Methanogenesis marker protein 17; Methanogenesis marker protein 3; DUF2098 domain-containing protein

[3] = biological target: T2, A2 component; test: mass photometry (stabilisation of the complex); format: binding; settings: 5 mM AMP-PNP, 20 mM Ti(III) citrate; indirect, through assembly of A2 with MCR
[4] = biological target: methyl-coenzyme M reductase (MCR) core (Methanococcus maripaludis (endogenous in M. maripaludis JJ Δupt)) (UniProt Q6LWZ9); test: cryo-EM structure; single-particle analysis of the Strep-Tactin-purified MCR activation complex (1.2 mg/ml), vitrified anaerobically 'as isolated' (maps with A2 at 2.5 Å and without A2 at 2.7 Å) and after 30 min with 5 mM ATP and the CH4 reaction components except Ti(III) citrate (2.1 Å, locally 1.8 Å)

T1 sequence (A0A2L1CBB3 entry or part of it): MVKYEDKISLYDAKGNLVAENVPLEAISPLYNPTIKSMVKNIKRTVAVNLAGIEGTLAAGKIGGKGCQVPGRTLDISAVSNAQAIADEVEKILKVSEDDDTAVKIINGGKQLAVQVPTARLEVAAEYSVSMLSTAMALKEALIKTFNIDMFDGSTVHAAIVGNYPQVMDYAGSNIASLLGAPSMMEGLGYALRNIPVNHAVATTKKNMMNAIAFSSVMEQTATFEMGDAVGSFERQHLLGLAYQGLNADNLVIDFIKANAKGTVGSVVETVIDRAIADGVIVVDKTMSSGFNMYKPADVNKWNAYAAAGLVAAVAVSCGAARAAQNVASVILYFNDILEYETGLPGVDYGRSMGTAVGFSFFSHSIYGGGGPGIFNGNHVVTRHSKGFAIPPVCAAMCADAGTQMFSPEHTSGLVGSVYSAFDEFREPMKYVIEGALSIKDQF
T1 sequence (A0A2L1CBB0 entry or part of it): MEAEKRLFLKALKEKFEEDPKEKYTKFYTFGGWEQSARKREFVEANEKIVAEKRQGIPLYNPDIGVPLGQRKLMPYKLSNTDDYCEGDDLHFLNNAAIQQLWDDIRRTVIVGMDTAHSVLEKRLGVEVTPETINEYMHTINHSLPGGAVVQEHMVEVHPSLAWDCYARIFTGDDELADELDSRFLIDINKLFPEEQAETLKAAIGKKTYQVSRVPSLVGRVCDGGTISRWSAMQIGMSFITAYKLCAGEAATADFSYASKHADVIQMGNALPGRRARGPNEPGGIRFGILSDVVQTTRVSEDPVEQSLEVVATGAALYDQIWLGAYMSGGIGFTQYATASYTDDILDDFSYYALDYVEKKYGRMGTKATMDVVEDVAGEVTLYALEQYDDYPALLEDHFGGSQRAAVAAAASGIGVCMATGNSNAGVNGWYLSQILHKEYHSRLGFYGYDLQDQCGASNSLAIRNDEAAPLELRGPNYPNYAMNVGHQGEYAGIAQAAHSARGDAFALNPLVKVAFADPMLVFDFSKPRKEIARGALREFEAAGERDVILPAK
T1 sequence (A0A2L1CBG2 entry or part of it): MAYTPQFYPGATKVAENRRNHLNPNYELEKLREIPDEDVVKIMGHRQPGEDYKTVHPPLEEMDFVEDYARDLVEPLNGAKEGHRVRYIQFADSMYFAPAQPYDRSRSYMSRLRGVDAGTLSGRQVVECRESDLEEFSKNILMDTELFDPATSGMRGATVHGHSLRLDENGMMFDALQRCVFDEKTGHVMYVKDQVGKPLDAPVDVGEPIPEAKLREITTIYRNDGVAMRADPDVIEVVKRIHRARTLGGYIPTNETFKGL
T1 sequence (G0H3B1 entry or part of it, further chain): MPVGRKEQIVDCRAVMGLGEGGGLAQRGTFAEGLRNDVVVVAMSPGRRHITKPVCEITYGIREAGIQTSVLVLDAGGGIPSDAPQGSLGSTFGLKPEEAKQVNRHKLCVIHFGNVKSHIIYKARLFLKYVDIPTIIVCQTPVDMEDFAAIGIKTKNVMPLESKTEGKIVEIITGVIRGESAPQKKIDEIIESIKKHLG

Question: Which cryo-EM structure ([1]; proximal active site, next to F430, sample incubated with ATP) does the source give for `C[C@@H](OP(=O)(O)O)[C@H](NC(=O)CCCCCCSSCCS(=O)(=O)O)C(=O)O` [CoMS–SCoB] here?
Answer: Its cryo-EM structure is “In the proximal active site, we found the CoMS–SCoB heterodisulfide next to F430”.

Question: `Nc1ncnc2c1ncn2[C@@H]1O[C@H](COP(=O)(O)OP(=O)(O)OP(=O)(O)O)[C@@H](O)[C@H]1O` [ATP] was tested. Which cryo-EM structure [2] did it give?
Answer: The cryo-EM structure was “Our structure revealed two ATP molecules and their coordinating Mg ions”.

Question: `C[C@@H](OP(=O)(O)O)[C@H](NC(=O)CCCCCCS)C(=O)O` [CoB–SH] was tested. Which cryo-EM structure ([1]; distal active site) did it give?
Answer: Its cryo-EM structure is “the phosphate moiety of CoB–SH was kept in place by the positively charged McrA residues”.

Question: `Nc1ncnc2c1ncn2[C@@H]1O[C@H](COP(=O)(O)OP(=O)(O)NP(=O)(O)O)[C@@H](O)[C@H]1O` [AMP-PNP] was tested. Which “mass photometry (stabilisation of the complex)” value [3] did it give?
Answer: Its value is “A similar effect was observed when AMP-PNP, a non-hydrolysable ATP analogue, was used”.

B1: A2 component (natural protein)
chain: MLLLEVKNVSKSYGDTEVLKNVSFELNEGDVMGVLGRSGAGKSVLLHMLRGMEGYEPTSGQIIYHVAYCPHCENVEAPSQVGKKCECETEYVAKSVDFWNNNEITYALKKKIAIMLQRTFALYGEKTVAENIMEALTAAGYEGKDATEWALNLIKMVKLEHRVAHISRDLSGGEKQRVVLARQIAKNPVIFLADEPTGTLDPKTAKFVHNALTEAVIKHNIAMVITSHWPEVIEELCQKAIWLDKGEMRLVGESKHVVEEFMKTVTSMKEFEKVEVKDELLKLENVEKRYVSVDRGIVKAVDGIDVSINEKEIFGLVGVSGAGKTTLSKIIAAVIPPSKGNYEFRLADEWVDMTKVGPLYRGRAKRYIGMLFQEYSLYPHRTILYNLTESIGLEMPGEFAKMKAEHTLVSVGFTEEEAENMLEKHPSELSVGEKHRVALAQVLIREPHLILLDEPTGTMDPITRNQVAESIQKSRSELDQTYVIVSHDMDFVLNVCDRAALVRGGKIIKTGKPDEIVKILSEEEKDEMIGH
Question: For B1, which occupancy of the A2 component, sample preincubated with 5 mM ATP (% of the particles) [4] is on record?
Answer: Its occupancy of the A2 component, sample preincubated with 5 mM ATP (% of the particles) is 92.

Question: And the percent of particles with the A2 component, sample 'as isolated' (% of particles) [4]?
Answer: The percent of particles with the A2 component, sample 'as isolated' (% of particles) was 58.
